From ChEMBL document CHEMBL1201862, “PubChem BioAssay data set” (2004)
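1) Cells in 96-well plates. 2) Compound, 48 h, 5 concentrations. 3) Linear interpolation between surrounding doses. 4) Unreached endpoint = highest concentration. At the GI50, growth is halved.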 Activity calls are given as the source filed them. Rule as the data show it: active = GI50 up to about 1.1 µM and inactive = higher.

Legend:
Experiment in all cases: NCI tumour cell line growth inhibition, 48 h
ACHN = system: ACHN
HOP-62 = system: HOP-62
LOX IMVI = system: LOX IMVI
M14 = system: M14
NCI-H23 = system: NCI-H23
NCI-H522 = system: NCI-H522
SF-295 = system: SF-295
SF-539 = system: SF-539
SK-MEL-28 = system: SK-MEL-28
SK-MEL-5 = system: SK-MEL-5
SNB-19 = system: SNB-19
TK-10 = system: TK-10
U-251 = system: U-251
UO-31 = system: UO-31
COLO 205 = system: COLO 205
NCI-H226 = system: NCI-H226

Measured: GI50

NC12CC3CC(C1)CC(C(=O)O)(C3)C2
inactive: ACHN > 100 µM | HOP-62 > 100 µM | LOX IMVI > 100 µM | M14 > 100 µM | NCI-H23 > 100 µM | NCI-H522 > 100 µM | SF-295 > 100 µM | SF-539 > 100 µM | SK-MEL-28 > 100 µM | SK-MEL-5 > 100 µM | SNB-19 > 100 µM | TK-10 > 100 µM | U-251 > 100 µM | UO-31 > 100 µM

O=C(NO)C(=O)Nc1cc(Cl)ccc1Cl
inactive: ACHN > 100 µM | COLO 205 > 100 µM | HOP-62 > 100 µM | LOX IMVI 16.8 µM | M14 > 100 µM | NCI-H226 > 100 µM | NCI-H23 > 100 µM | NCI-H522 23.9 µM | SF-295 > 100 µM | SF-539 > 100 µM | SK-MEL-28 > 100 µM | SK-MEL-5 > 100 µM | SNB-19 > 100 µM | TK-10 > 100 µM | U-251 > 100 µM | UO-31 22 µM

Cc1cc(C(C)C)cc(=O)c(O)c1
inactive: ACHN > 100 µM | COLO 205 > 100 µM | HOP-62 > 100 µM | LOX IMVI > 100 µM | M14 > 100 µM | NCI-H226 > 100 µM | NCI-H522 > 100 µM | SF-295 > 100 µM | SF-539 > 100 µM | SK-MEL-28 > 100 µM | SK-MEL-5 > 100 µM | SNB-19 > 100 µM | TK-10 > 100 µM | U-251 > 100 µM | UO-31 > 100 µM

CCOC(=O)/C([O-])=C(\C(=O)OCC)[n+]1c(C)n(C)c2ccccc21
inactive: COLO 205 > 100 µM | HOP-62 > 100 µM | LOX IMVI > 100 µM | M14 > 100 µM | NCI-H226 > 100 µM | NCI-H23 > 100 µM | NCI-H522 > 100 µM | SF-295 > 100 µM | SF-539 > 100 µM | SK-MEL-28 > 100 µM | SK-MEL-5 > 100 µM | SNB-19 > 100 µM | TK-10 > 100 µM | U-251 > 100 µM | UO-31 > 100 µM

CCN1C(=O)C(N=[N+]=[N-])(c2ccccc2)C(=O)c2ccccc21 (configuration not stated)
inactive: ACHN > 100 µM | COLO 205 > 100 µM | HOP-62 > 100 µM | LOX IMVI > 100 µM | M14 41.9 µM | NCI-H226 46.7 µM | NCI-H23 57.1 µM | NCI-H522 > 100 µM | SF-295 60.3 µM | SF-539 > 100 µM | SK-MEL-28 > 100 µM | SK-MEL-5 56.5 µM | SNB-19 > 100 µM | TK-10 > 100 µM | U-251 > 100 µM | UO-31 43.7 µM

CC(=O)/C(=N\O)C(=O)NCCc1ccccc1
inactive: ACHN > 100 µM | COLO 205 45.9 µM | HOP-62 > 100 µM | LOX IMVI 41.8 µM | M14 > 100 µM | NCI-H226 > 100 µM | NCI-H23 > 100 µM | NCI-H522 > 100 µM | SF-295 > 100 µM | SF-539 > 100 µM | SK-MEL-28 > 100 µM | SK-MEL-5 > 100 µM | SNB-19 > 100 µM | TK-10 45.1 µM | U-251 63.5 µM | UO-31 > 100 µM

Cc1nc(-n2nc(-c3ccccc3)cc2-c2ccccc2)sc1C(=O)/C=C/c1ccc(/C=C/C(=O)c2sc(-n3nc(-c4ccccc4)cc3-c3ccccc3)nc2C)cc1
inactive: ACHN 19.9 µM | COLO 205 20.2 µM | HOP-62 23.6 µM | LOX IMVI 20 µM | M14 20 µM | NCI-H226 26.8 µM | NCI-H23 19.1 µM | NCI-H522 17.8 µM | SF-295 23.9 µM | SF-539 19.2 µM | SK-MEL-28 19.5 µM | SNB-19 21.8 µM | TK-10 34.1 µM | U-251 19 µM | UO-31 20.1 µM

C/C(CC(=O)Nc1ccc([N+](=O)[O-])cc1)=N/N=C(N)N
inactive: ACHN > 100 µM | COLO 205 > 100 µM | HOP-62 > 100 µM | LOX IMVI > 100 µM | M14 > 100 µM | NCI-H226 > 100 µM | NCI-H23 > 100 µM | NCI-H522 > 100 µM | SF-295 > 100 µM | SF-539 > 100 µM | SK-MEL-28 > 100 µM | SK-MEL-5 > 100 µM | TK-10 > 100 µM | U-251 > 100 µM | UO-31 > 100 µM

N#CCCN(c1ccc(-c2nnc(NC(=O)CNNC(=O)CC(=O)Nc3ccccc3)s2)cc1)S(=O)(=O)c1ccccc1
inactive: ACHN > 100 µM | COLO 205 > 100 µM | HOP-62 > 100 µM | LOX IMVI > 100 µM | NCI-H226 59.3 µM | NCI-H23 76.6 µM | NCI-H522 42.1 µM | SF-295 > 100 µM | SF-539 > 100 µM | SK-MEL-28 > 100 µM | SK-MEL-5 52.1 µM | SNB-19 > 100 µM | TK-10 > 100 µM | U-251 > 100 µM | UO-31 46.3 µM
